Data reported in article PMC9699427 (Viruses, 2022).
Read-outs that look alike come from different tables or passages of the source.

Tests used:
[1] = biological target: CYP2C19 (Homo sapiens, UniProt P33261); test: Cytochrome P450 inhibition, human liver microsomes, S-mephenytoin
[2] = biological target: CYP2D6 (Homo sapiens, UniProt P10635); test: Cytochrome P450 inhibition, human liver microsomes, dextromethorphan
[3] = biological target: T1, CYP1A2 (Homo sapiens, UniProt P05177); test: Cytochrome P450 inhibition, human liver microsomes, phenacetin
T1 sequence (P05177 1-516): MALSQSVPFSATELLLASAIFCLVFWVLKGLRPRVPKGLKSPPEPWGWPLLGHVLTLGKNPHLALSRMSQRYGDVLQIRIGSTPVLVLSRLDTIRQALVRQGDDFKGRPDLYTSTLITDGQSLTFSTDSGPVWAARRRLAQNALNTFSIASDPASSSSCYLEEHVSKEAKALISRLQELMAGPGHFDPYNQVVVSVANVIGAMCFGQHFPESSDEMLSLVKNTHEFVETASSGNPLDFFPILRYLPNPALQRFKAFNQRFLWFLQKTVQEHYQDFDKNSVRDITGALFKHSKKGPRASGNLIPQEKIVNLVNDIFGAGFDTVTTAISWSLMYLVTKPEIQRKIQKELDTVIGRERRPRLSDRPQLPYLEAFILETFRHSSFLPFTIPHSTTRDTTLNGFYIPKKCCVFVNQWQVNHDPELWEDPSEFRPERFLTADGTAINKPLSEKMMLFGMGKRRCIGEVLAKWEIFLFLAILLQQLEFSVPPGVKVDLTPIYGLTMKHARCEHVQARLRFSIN

[4] = Pharmacokinetics after iv and oral dosing; assay type: in vivo, BALB/c mice; conditions: for half-life: read-out: t1/2z (converted)
[5] = mouse, plasma, iv 2 mg/kg, female BALB/c mice
[6] = mouse, plasma, iv 2 mg/kg, male BALB/c mice
[7] = mouse, plasma, po 30 mg/kg, female BALB/c mice
[8] = mouse, plasma, po 30 mg/kg, male BALB/c mice
[9] = mouse, plasma, po 60 mg/kg, female BALB/c mice
[10] = mouse, plasma, po 60 mg/kg, male BALB/c mice
[11] = mouse, plasma, po 120 mg/kg, female BALB/c mice
[12] = mouse, plasma, po 120 mg/kg, male BALB/c mice
[13] = po 30 mg/kg, female BALB/c mice

Chain of CYP2D6 (P10635 whole entry): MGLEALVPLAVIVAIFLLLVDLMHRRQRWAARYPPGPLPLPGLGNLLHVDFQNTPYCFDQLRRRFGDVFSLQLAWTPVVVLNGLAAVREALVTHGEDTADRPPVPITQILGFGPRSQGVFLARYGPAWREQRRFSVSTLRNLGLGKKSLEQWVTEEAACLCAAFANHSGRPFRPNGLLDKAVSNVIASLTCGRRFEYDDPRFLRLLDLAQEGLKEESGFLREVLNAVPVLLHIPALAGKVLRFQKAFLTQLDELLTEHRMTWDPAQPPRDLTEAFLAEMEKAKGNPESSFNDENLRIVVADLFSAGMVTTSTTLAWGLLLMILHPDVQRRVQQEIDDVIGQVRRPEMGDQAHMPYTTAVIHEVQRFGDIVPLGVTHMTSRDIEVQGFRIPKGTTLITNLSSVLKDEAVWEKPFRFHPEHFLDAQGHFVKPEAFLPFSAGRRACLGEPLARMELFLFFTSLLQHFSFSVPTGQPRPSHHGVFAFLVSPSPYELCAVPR
Chain of CYP2C19 (P33261 whole entry): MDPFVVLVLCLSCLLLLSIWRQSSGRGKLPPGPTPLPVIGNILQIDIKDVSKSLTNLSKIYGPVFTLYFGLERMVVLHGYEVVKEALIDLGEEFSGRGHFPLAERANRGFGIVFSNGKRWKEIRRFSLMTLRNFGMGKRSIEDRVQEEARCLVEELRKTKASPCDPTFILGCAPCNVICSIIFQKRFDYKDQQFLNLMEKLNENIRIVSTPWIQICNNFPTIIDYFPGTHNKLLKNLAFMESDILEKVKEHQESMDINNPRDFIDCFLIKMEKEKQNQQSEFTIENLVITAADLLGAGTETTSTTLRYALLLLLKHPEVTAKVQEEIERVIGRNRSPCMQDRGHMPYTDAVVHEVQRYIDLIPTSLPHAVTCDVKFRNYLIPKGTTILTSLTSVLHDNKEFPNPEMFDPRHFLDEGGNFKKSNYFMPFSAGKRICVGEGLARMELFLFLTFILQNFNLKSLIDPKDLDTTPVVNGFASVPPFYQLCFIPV

Cc1cc(C#N)cc(C)c1Oc1nc(NC2CCN(Cc3ccc(S(N)(=O)=O)cc3)CC2)nc2ccsc12 [K-5a2] gave an IC50 [1] greater than 50 µM, an IC50 [2] greater than 50 µM and an IC50 [3] greater than 50 µM. For the same compound, the bioavailability ([4]; BALB/c, mouse, plasma, female mice, oral doses, read-out: Oral bioavailability) was 8.5 ± 2.7%, the bioavailability ([4]; BALB/c, mouse, plasma, male mice, oral doses, read-out: Oral bioavailability) was 6.8 ± 1.3% and the Tmax ([4]; both, mouse, plasma, single oral administration at 30, 60, or 120 mg/kg, BALB/c mice, read-out: Time to peak plasma concentration) was 15 to 30 min. The Cmax ([4]; female, BALB/c, mouse, plasma, iv, 2 mg/kg, iv 2 mg/kg, female BALB/c mice, read-out: Cmax) was 1100 ng/mL, the Cmax ([4]; female, BALB/c, mouse, plasma, po, 30 mg/kg, po 30 mg/kg, female BALB/c mice, read-out: Cmax) was 416 ng/mL and the Cmax ([4]; female, BALB/c, mouse, plasma, po, 60 mg/kg, po 60 mg/kg, female BALB/c mice, read-out: Cmax) was 1100 ng/mL. The Cmax ([4]; female, BALB/c, mouse, plasma, po, 120 mg/kg, po 120 mg/kg, female BALB/c mice, read-out: Cmax) was 1940 ng/mL, the Cmax ([4]; iv 2 mg/kg, female BALB/c mice, 2 mg/kg) was 1098.3 ng/mL and the Cmax ([4]; iv 2 mg/kg, male BALB/c mice, 2 mg/kg) was 1078.7 ng/mL. For the same compound, the Cmax ([4]; male, BALB/c, mouse, plasma, iv, 2 mg/kg, iv 2 mg/kg, male BALB/c mice, read-out: Cmax) was 1080 ng/mL, the Cmax ([4]; male, BALB/c, mouse, plasma, po, 30 mg/kg, po 30 mg/kg, male BALB/c mice, read-out: Cmax) was 345 ng/mL and the Cmax ([4]; male, BALB/c, mouse, plasma, po, 60 mg/kg, po 60 mg/kg, male BALB/c mice, read-out: Cmax) was 749 ng/mL. The Cmax ([4]; male, BALB/c, mouse, plasma, po, 120 mg/kg, po 120 mg/kg, male BALB/c mice, read-out: Cmax) was 1680 ng/mL, the AUC(0-t) [4, 5] was 461 ng·h/mL and the clearance [4, 5] was 69.2 mL/min/kg. It also gave a Tmax ([4]; mouse, plasma, iv 2 mg/kg, female BALB/c mice, read-out: Tmax) of 1.98 min, a Vd ([4]; mouse, plasma, iv 2 mg/kg, female BALB/c mice, read-out: Vd) of 14.1 L/kg and a half-life [4, 5] of 141 min. For the same compound, the AUC(0-t) [4, 6] was 454 ng·h/mL, the clearance [4, 6] was 70.5 mL/min/kg and the Tmax ([4]; mouse, plasma, iv 2 mg/kg, male BALB/c mice, read-out: Tmax) was 1.98 min. It also gave a Vd ([4]; mouse, plasma, iv 2 mg/kg, male BALB/c mice, read-out: Vd) of 13.3 L/kg, a half-life [4, 6] of 131 min and an AUC(0-t) [4, 7] of 488 ng·h/mL. For the same compound, the bioavailability ([4]; mouse, plasma, po 30 mg/kg, female BALB/c mice, read-out: F) was 7.05%, the Tmax ([4]; mouse, plasma, po 30 mg/kg, female BALB/c mice, read-out: Tmax) was 15 min and the half-life [4, 7] was 65.4 min. The AUC(0-t) [4, 8] was 482 ng·h/mL, the bioavailability ([4]; mouse, plasma, po 30 mg/kg, male BALB/c mice, read-out: F) was 7.08% and the Tmax ([4]; mouse, plasma, po 30 mg/kg, male BALB/c mice, read-out: Tmax) was 30 min. For the same compound, the half-life [4, 8] was 62.4 min, the AUC(0-t) [4, 9] was 1420 ng·h/mL and the bioavailability ([4]; mouse, plasma, po 60 mg/kg, female BALB/c mice, read-out: F) was 10.2%. For the same compound, the Tmax ([4]; mouse, plasma, po 60 mg/kg, female BALB/c mice, read-out: Tmax) was 15 min, the half-life [4, 9] was 71.4 min and the AUC(0-t) [4, 10] was 968 ng·h/mL. It also gave a bioavailability ([4]; mouse, plasma, po 60 mg/kg, male BALB/c mice, read-out: F) of 7.1%, a Tmax ([4]; mouse, plasma, po 60 mg/kg, male BALB/c mice, read-out: Tmax) of 30 min and a half-life [4, 10] of 85.2 min. For the same compound, the AUC(0-t) [4, 11] was 3580 ng·h/mL, the bioavailability ([4]; mouse, plasma, po 120 mg/kg, female BALB/c mice, read-out: F) was 12.9% and the Tmax ([4]; mouse, plasma, po 120 mg/kg, female BALB/c mice, read-out: Tmax) was 30 min. For the same compound, the half-life [4, 11] was 49.2 min, the AUC(0-t) [4, 12] was 2460 ng·h/mL and the bioavailability ([4]; mouse, plasma, po 120 mg/kg, male BALB/c mice, read-out: F) was 9.05%. It also gave a Tmax ([4]; mouse, plasma, po 120 mg/kg, male BALB/c mice, read-out: Tmax) of 30 min, a half-life [4, 12] of 105 min and a CL [4, 13] of 1007 mL/min/kg. The Vd [4, 13] was 95.0 L/kg.
